Assay results from the NIST ThermoML archive (doi:10.1021/acs.jced.9b00145).

Assay: xn = mol fraction of the nth substance listed
Conditions: 100 kPa, Liquid, Vibrating tube method, x2 = 0.3333

NC(N)=O [urea] + C[N+](C)(C)CCO.[Cl-]
Conditions | mass density [kg/m3]
293.15 K | 1199.42
298.15 K | 1196.68
303.15 K | 1193.96
308.15 K | 1191.19
313.15 K | 1188.52
318.15 K | 1185.87
323.15 K | 1183.2
328.15 K | 1180.53
333.15 K | 1177.87
338.15 K | 1175.22
